Measurements as given in EPA's ToxValDB 9.5 (doi:10.2903/j.efsa.2013.3253).
In brackets after ≈: the same amount, converted by molar mass.

Tests used:
Daphnia magna = details: chronic/long-term; duration: 22 days; reproduction
Neomysis kadiakensis = details: acute; duration: 96 hours; mortality
Apis mellifera = details: acute, duration: 48 hours, mortality
Canidae = details: chronic; duration: 1 years; oral; Dog Other; histopathology: nonneoplastic
Rattus norvegicus = details: mortality
Tagia sp. = details: acute; duration: 14 days; mortality
Cyprinodon variegatus = details: acute; duration: 96 hours; mortality
Pimephales promelas = details: chronic/long-term; duration: 33 days; growth

COC(=O)CC(NC(=O)[C@@H](NC(=O)OC(C)C)C(C)C)c1ccc(Cl)cc1 (stereo partly specified) [Valifenalate]
NOEC (Daphnia magna): 3.2 mg/L
LC50 (Neomysis kadiakensis): 2.8 µg/mL (≈ 7.02 µM)
LD50 (Anas platyrhynchos; acute, oral, unspecified, mortality): > 2250 mg/kg
NOAEL (Anas platyrhynchos; reproductive, reproduction): 167 mg/kg-day
LC50 (Anas platyrhynchos; short-term, oral, feed, mortality): > 2650 mg/kg-day
LC50 (Colinus virginianus; acute, oral, diet, mortality): > 1510 mg/kg-day
LD50 (Colinus virginianus; acute, oral, mortality): > 2250 mg/kg
NOAEL (Colinus virginianus; reproduction developmental, reproduction): 104 mg/kg-day
LD50 (Apis mellifera; dermal): > 100 µg/piece
LD50 (Apis mellifera; oral, unspecified): > 107 µg/piece
NOAEL (Canidae): 7 mg/kg-day
LD50 (Rattus norvegicus; acute, oral): > 5000 mg/kg
NOAEL (Rattus norvegicus; reproduction developmental): 80 mg/kg-day
LC50 (Tagia sp.): > 1000 mg/kg
LC50 (Cyprinodon variegatus): > 15 µg/mL
NOEC (Pimephales promelas): 12 mg/L
